# Data as given in patent US20030176436A1, “Novel heterocyclic compounds as selective bacterial DHFR inhibitors and their uses thereof” (priority 2001, published 2003).
# Biological target: T1, bacterial DHFR (bDHFR) (Escherichia coli, UniProt P0ABQ4)
# T1 construct: gift of Eric Brown, McMaster University
# Experiment: DHFR enzyme assay, Ki determination, bacterial DHFR
# Format: biochemical, E. coli
# Details: Table 3; read-out: bDHFR Ki
# Method: Human and Bacterial DHFR: E. coli DHFR was kindly provided by Eric Brown of MacMaster University.
# (§1) Dihydrofolic acid and NADPH were purchased from Sigma. Enzyme assays were adapted for microtitre format from a previously published procedure (2, 3). All assays were performed in a 250 μl volume in 96-well microtitre plates. Typical assays consisted of 20 nM DHFR (human or E. coli), 100 μM NADPH, and 50 μM dihydrofolic acid in 100 mM HEPES pH 8, 10 mM KCl, and 10 mM MgCl2. The assay was monitored spectrophotometrically for the conversion of NADPH to NADP+, which results in a decrease in absorbance at 340 nm.
# (§2) The reaction was initiated by the addition of 125 μl of 100 μM dihydrofolic acid. The final concentrations in the assay were 20 nM DHFR, 100 μM NADPH, 50 μM dihydrofolic acid, and a range of 500 μM to 20 nM inhibitor compound. The final DMSO concentration was 2% of the total volume. Reactions were monitored as described above.
row,SMILES,Ki [µM]
1,Nc1nc(N)c2nc(CNc3ccc4nc(S)sc4c3)cnc2n1 [Compound 10],0.1 to 0.499
2,Nc1nc(N)c2nc(CNc3ccccc3)cnc2n1 [Compound 6],1 to 5
3,CN(Cc1cnc2nc(N)nc(N)c2n1)c1ccc(C(=O)NCc2ccncc2)cc1 [Compound 5],< 0.1
4,CN(Cc1cnc2nc(N)nc(N)c2n1)c1ccc(C(=O)NCc2ccccn2)cc1 [Compound 3],< 0.1

# Biological target: T2, human DHFR (hDHFR) (Homo sapiens, UniProt P00374)
# T2 construct: result in the amplification of a 186 amino acid hDHFR coding region; made in house; host or cells: E. coli Top10
# T2 sequence (P00374 1-187): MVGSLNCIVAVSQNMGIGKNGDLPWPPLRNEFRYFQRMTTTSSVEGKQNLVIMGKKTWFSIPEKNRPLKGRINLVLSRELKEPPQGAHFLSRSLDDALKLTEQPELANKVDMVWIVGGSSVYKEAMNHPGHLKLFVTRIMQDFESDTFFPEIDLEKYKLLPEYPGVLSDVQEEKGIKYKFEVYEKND
# Experiment: DHFR enzyme assay, Ki determination, human DHFR
# Format: biochemical
# Details: Table 3
# Method: The human DHFR cDNA was cloned by PCR from the Human Universal Quick-clone™ cDNA purchased from Clontech.
# The PCR fragment was digested with restriction enzymes NdeI and HindIII, and then ligated into a derivative of the pKK223-3 expression vector (Amersham Pharmacia). The final expression vector (pFW96.2) was transformed into E. coli Top10 F40 and hDHFR protein was induced by the addition of 1 mM IPTG followed by incubation at 37° C. for 4 hrs. Recombinant human DHFR was purified based on a previously published procedure (2).
# as §1
# as §2, with “Five microliters of inhibitor compound in DMSO was added to 120 μl of enzyme solution (40 nM DHFR and 200 μM NADPH). The reaction” for “The reaction”
# V=(Vmax[S])/(Km(1+I/Ki)+[S]), where S=dihydrofolate, Km=Michaelis constant for dihydrofolate, I=inhibitor concentration.
row,SMILES,Ki [µM]
1,Nc1nc(N)c2nc(CNc3ccc4nc(S)sc4c3)cnc2n1 [Compound 10],> 5
2,Nc1nc(N)c2nc(CNc3ccccc3)cnc2n1 [Compound 6],> 5
3,CN(Cc1cnc2nc(N)nc(N)c2n1)c1ccc(C(=O)NCc2ccncc2)cc1 [Compound 5],0.5 to 0.999
4,CN(Cc1cnc2nc(N)nc(N)c2n1)c1ccc(C(=O)NCc2ccccn2)cc1 [Compound 3],1 to 5

# System: E. coli
# Experiment: Microdilution antimicrobial susceptibility test (MIC)
# Format: cell-based
# Details: Escherichia coli; Table 2; 90% inhibition of growth
# Method: (§3) Stock solutions of tested compounds were prepared in N,N-dimethylformamide (DMF) at a concentration of 5 mg/mL. Working solutions of the tested compounds were then prepared from the stock solutions, in Mueller-Hinton broth (MHB) with a starting concentration of 64 μg/mL.
# (§4) Bacterial inocula were prepared from overnight culture (i.e., one fresh colony from agar plate in 5 ml MHB; H. influenzae was grown in MHB with the addition of yeast extract, haematin, and NAD), centrifuged 2×5 min/3000 rpm (for S. pneumoniae and H. influenzae, 2×10 min/3000 rpm), and dispensed in 5 ml of fresh MHB each time, such that the bacterial suspension is diluted to obtain 100 colony forming units (cfu) in a microplate well (100 μl total volume).
# (§5) Microplate wells were filled with two-fold dilutions of test compound (50 μl), starting with 64 μg/ml. Wells were then filled with 50 μl of bacterial inoculum (final volume: 100 μl/well). The plates were incubated at 37° C. for 18-24 hours (S. pneumoniae was grown in a CO2-enriched atmosphere).
row,SMILES,MIC [mg/L]
1,Nc1nc(N)c2nc(CNc3ccc4nc(S)sc4c3)cnc2n1 [Compound 10],> 64
2,Nc1nc(N)c2nc(CNc3ccccc3)cnc2n1 [Compound 6],> 64
3,CN(Cc1cnc2nc(N)nc(N)c2n1)c1ccc(C(=O)NCc2ccncc2)cc1 [Compound 5],> 64
4,CN(Cc1cnc2nc(N)nc(N)c2n1)c1ccc(C(=O)NCc2ccccn2)cc1 [Compound 3],> 64

# System: E. faecalis
# Experiment: as above
# Format: cell-based
# Details: Enterococcus faecalis; Table 2; 90% inhibition of growth
# Method: as §3, §4, §5
row,SMILES,MIC [mg/L]
1,Nc1nc(N)c2nc(CNc3ccc4nc(S)sc4c3)cnc2n1 [Compound 10],< 2
2,Nc1nc(N)c2nc(CNc3ccccc3)cnc2n1 [Compound 6],2 to 8
3,CN(Cc1cnc2nc(N)nc(N)c2n1)c1ccc(C(=O)NCc2ccncc2)cc1 [Compound 5],2 to 8
4,CN(Cc1cnc2nc(N)nc(N)c2n1)c1ccc(C(=O)NCc2ccccn2)cc1 [Compound 3],2 to 8

# System: H. influenzae
# Experiment: as above
# Format: cell-based
# Details: Haemophilus influenzae; Table 2; 90% inhibition of growth; read-out: MIC H. influenzae
# Method: as §3, §4, §5
row,SMILES,MIC [mg/L]
1,Nc1nc(N)c2nc(CNc3ccc4nc(S)sc4c3)cnc2n1 [Compound 10],16 to 64
2,Nc1nc(N)c2nc(CNc3ccccc3)cnc2n1 [Compound 6],2 to 8
3,CN(Cc1cnc2nc(N)nc(N)c2n1)c1ccc(C(=O)NCc2ccncc2)cc1 [Compound 5],2 to 8
4,CN(Cc1cnc2nc(N)nc(N)c2n1)c1ccc(C(=O)NCc2ccccn2)cc1 [Compound 3],2 to 8

# System: M. catarrhalis
# Experiment: as above
# Format: cell-based
# Details: Moraxella catarrhalis; Table 2; 90% inhibition of growth
# Method: as §3, §4, §5
row,SMILES,MIC [mg/L]
1,Nc1nc(N)c2nc(CNc3ccc4nc(S)sc4c3)cnc2n1 [Compound 10],< 2
2,Nc1nc(N)c2nc(CNc3ccccc3)cnc2n1 [Compound 6],2 to 8
3,CN(Cc1cnc2nc(N)nc(N)c2n1)c1ccc(C(=O)NCc2ccncc2)cc1 [Compound 5],2 to 8
4,CN(Cc1cnc2nc(N)nc(N)c2n1)c1ccc(C(=O)NCc2ccccn2)cc1 [Compound 3],2 to 8

# System: P. aeruginosa
# Experiment: as above
# Format: cell-based
# Details: Pseudomonas aeruginosa; Table 2; 90% inhibition of growth
# Method: as §3, §4, §5
row,SMILES,MIC [mg/L]
1,Nc1nc(N)c2nc(CNc3ccc4nc(S)sc4c3)cnc2n1 [Compound 10],> 64
2,Nc1nc(N)c2nc(CNc3ccccc3)cnc2n1 [Compound 6],> 64
3,CN(Cc1cnc2nc(N)nc(N)c2n1)c1ccc(C(=O)NCc2ccncc2)cc1 [Compound 5],> 64
4,CN(Cc1cnc2nc(N)nc(N)c2n1)c1ccc(C(=O)NCc2ccccn2)cc1 [Compound 3],> 64

# System: S. aureus
# Experiment: as above
# Format: cell-based
# Details: Staphylococcus aureus; Table 2; 90% inhibition of growth; read-out: MIC S. aureus
# Method: as §3, §4, §5
row,SMILES,MIC [mg/L]
1,Nc1nc(N)c2nc(CNc3ccc4nc(S)sc4c3)cnc2n1 [Compound 10],2 to 8
2,Nc1nc(N)c2nc(CNc3ccccc3)cnc2n1 [Compound 6],2 to 8
3,CN(Cc1cnc2nc(N)nc(N)c2n1)c1ccc(C(=O)NCc2ccncc2)cc1 [Compound 5],16 to 64
4,CN(Cc1cnc2nc(N)nc(N)c2n1)c1ccc(C(=O)NCc2ccccn2)cc1 [Compound 3],2 to 8

# System: S. pneumoniae
# Experiment: as above
# Format: cell-based
# Details: Streptococcus pneumoniae; Table 2; 90% inhibition of growth
# Method: as §3, §4, §5
row,SMILES,MIC [mg/L]
1,Nc1nc(N)c2nc(CNc3ccc4nc(S)sc4c3)cnc2n1 [Compound 10],2 to 8
2,Nc1nc(N)c2nc(CNc3ccccc3)cnc2n1 [Compound 6],2 to 8
3,CN(Cc1cnc2nc(N)nc(N)c2n1)c1ccc(C(=O)NCc2ccncc2)cc1 [Compound 5],2 to 8
4,CN(Cc1cnc2nc(N)nc(N)c2n1)c1ccc(C(=O)NCc2ccccn2)cc1 [Compound 3],2 to 8

# System: S. cerevisiae
# Experiment: Microdilution susceptibility test (MIC), yeast as indicator of cytotoxicity
# Format: cell-based
# Details: Saccharomyces cerevisiae; Table 2; 90% inhibition of growth
# Text: The following table of compounds of one aspect of the invention have potent antimicrobial activity against S. aureus bacteria and are anticipated to have physical-chemical properties similar to those of orally absorbed and bioavailable drugs and drug-like compounds. Antibacterial activity for a variety of bacterial species are shown (S. aureus, S. pneumoniae, E. faecalis, M. catarrhalis, and H. influenzae). The yeast cell (S. cerevisiae) in this panel of organisms is an indicator of potential cytotoxicity in mammalian cells.
# as §3, §5
row,SMILES,MIC [mg/L]
1,Nc1nc(N)c2nc(CNc3ccc4nc(S)sc4c3)cnc2n1 [Compound 10],16 to 64
2,Nc1nc(N)c2nc(CNc3ccccc3)cnc2n1 [Compound 6],> 64
3,CN(Cc1cnc2nc(N)nc(N)c2n1)c1ccc(C(=O)NCc2ccncc2)cc1 [Compound 5],> 64
4,CN(Cc1cnc2nc(N)nc(N)c2n1)c1ccc(C(=O)NCc2ccccn2)cc1 [Compound 3],> 64
